One block for each molecule: values may come before it.
Key:
[1] = tested on: MV-4-11 (acute myeloid leukemia) cells; assay: Caspase Activity Assay (Caspase-Glo 3/7, 6 h treatment), MV-4-11; type: cell-based, human; settings: MV-4-11 cells, geometric mean of multiple measurements
Experimental: (§1) This is a cell assay to measure the induction of apoptosis in MOLP-8 (multiple myeloma), KMS-12-BM (multiple myeloma), MV-4-11 (acute myeloid leukemia), and NCl-H23 (non-small cell lung cancer) cells after 6 h treatment. On the first day, 3000 (MOLP-8, KMS-12-BM, MV-4-11) or 1250 (NCl-H23) cells/well were seeded in 50 μL of growth media (IMDM+10% FBS+2 mM L-Glu for MV-4-11 and RPM1-1640+10% FBS+2 mM L-Glu for all other cell lines) in 384-well white microplates, and incubated overnight (37° C., 5% CO2, 80% RH). On the second day, the cells were treated with Mcl-1 inhibitors using an ECHO acoustic liquid handler (10 point half-log serial dilution, 31.5 μM top concentration, 0.3% final DMSO concentration). After 6 h incubation (37° C., 5% CO2, 80% RH), 25 μL of Caspase-Glo 3/7 reagent (Promega) was added into each well, and plates were incubated at room temperature for 30 min protected from light. Luminescence was recorded using an Infinite M200 microplate reader (Tecan) with a 100 ms integration time. EC50 values were calculated using GeneData analysis software.

[2] = tested on: NCl-H23 (non-small cell lung cancer) cells; assay: Caspase Activity Assay (Caspase-Glo 3/7, 6 h treatment), NCI-H23; type: cell-based; settings: geometric mean of multiple measurements
Experimental: as §1

[3] = tested on: KMS-12-BM (multiple myeloma) cells; assay: Caspase Activity Assay (Caspase-Glo 3/7, 6 h treatment), KMS-12-BM; type: cell-based; settings: KMS-12-BM cells, geometric mean of multiple measurements
Experimental: as §1

[4] = tested on: MOLP-8 (multiple myeloma) cells; assay: Caspase Activity Assay (Caspase-Glo 3/7, 6 h treatment), MOLP-8; type: cell-based, human; settings: MOLP-8 cells, geometric mean of multiple measurements
Experimental: as §1

NCl-H929 tumor = assay: In vivo combination efficacy in NCI-H929 human multiple myeloma tumor model; set-up: species or system C.B-17 SCID female mice; settings: NCl-H929 tumor bearing mice; for anti-tumor activity, agent alone: Example 2 30 mg/kg every other week or bortezomib 1 mg/kg weekly
Experimental: (§2) Example 2 was formulated in 30% 2-Hydroxypropyl-beta-cyclodextrin (HPBCD), pH 9 and dosed as intravenously (iv) in a volume of 5 ml/kg. 5×10^6 MOLP-8 tumor cells or 10^7 NCl-H929 tumor cells were injected subcutaneously in the right flank of C.B-17 SCID female mice in a volume of 0.1 mL. Tumor volumes (measured by caliper) were calculated using the formula: length (mm)×width (mm)^2[…]. For efficacy studies, mice were randomized based on tumor volumes and growth inhibition was assessed by comparison of the differences in tumor volume between control and treated groups. Dosing began when mean tumor size reached approximately 160 mm^3 for MOLP-8 and approximately 230 mm^3 for NCl-H929.

MV-4-11 tumor = assay: In vivo efficacy in MV-4-11 human acute myeloid leukemia tumor model; set-up: species or system C.B-17 SCID female mice; settings: for mice remaining tumor free / tumor regression: MV-4-11 tumors
Experimental: as §2, with “a single intravenous” for “intravenously”, “(iv) administration” for “(iv)”, “10^6 MV-4-11” for “5×10^6 MOLP-8 tumor cells or 10^7 NCl-H929”, “mL. Tumor volumes (measured by caliper), animal body weight, and tumor conditions were recorded twice weekly for the duration of the study.” for “mL.”, “approximately” for “approximately 160 mm^3 for MOLP-8 and approximately”, “mm^3.” for “mm^3 for NCl-H929.”

MOLP-8 tumor = assay: In vivo efficacy in MOLP-8 human multiple myeloma tumor model; set-up: species or system C.B-17 SCID female mice; settings: MOLP-8 tumor bearing mice
Experimental: as §2

EC50 ([1]; Homo sapiens, MV4-11, 6 h): > 1580 nM
EC50 ([2]; Homo sapiens, NCI-H23, 6 h): > 10000 nM
EC50 ([3]; Homo sapiens, KMS-12-BM, 6 h): > 1030 nM
EC50 ([4]; Homo sapiens, MOLP-8, 6 h): > 2300 nM
SMILES: Cc1c2c(nn1C)CSCc1cc(n(C)n1)CSc1cc(c3ccccc3c1)OCCCc1c(C(=O)O)n(C)c3c-2c(Cl)ccc13 (single isomer, unassigned) [Example 3, (Sa)-(−)-17-chloro-5,13,14,22-tetramethyl-28-oxa-2,9-dithia-5,6,12,13,22-pentaazaheptacyclo[27.7.1.1^4,7.0^11,15.0^16,21.0^20,24.0^30,35]octatriaconta-1(37),4(38),6,11,14,16,18,20,23,29,31,33,35-tridecaene-23-carboxylic Acid]

SMILES: CC(C)C[C@H](NC(=O)[C@H](Cc1ccccc1)NC(=O)c1cnccn1)B(O)O [bortezomib, reference compound]
anti-tumor activity, agent alone (NCl-H929 tumor): no significant anti-tumor activity

EC50 ([1]; Homo sapiens, MV4-11, 6 h): 24 nM
EC50 [2]: 531 nM
EC50 ([3]; Homo sapiens, KMS-12-BM, 6 h): 48 nM
EC50 ([4]; Homo sapiens, MOLP-8, 6 h): 44 nM
SMILES: Cc1c2c(nn1C)CSCc1cc(n(C)n1)CSc1cc(c3ccccc3c1)OCCCc1c(C(=O)O)n(C)c3c-2c(Cl)ccc13 [Example 1, 17-chloro-5,13,14,22-tetramethyl-28-oxa-2,9-dithia-5,6,12,13,22-pentaazaheptacyclo[27.7.1.1^4,7.0^11,15.0^16,21.0^20,24.0^30,35]octatriaconta-1(37),4(38),6,11,14,16,18,20,23,29,31,33,35-tridecaene-23-carboxylic Acid]

EC50 [1]: 20 nM
EC50 [3]: 43 nM
EC50 [4]: 30 nM
SMILES: Cc1c2c(nn1C)CSCc1cc(n(C)n1)CSc1cc(c3ccccc3c1)OCCCc1c(C(=O)O)n(C)c3c-2c(Cl)ccc13 (atropisomer, axis not shown; (Ra)) [Example 2, (Ra)-(+)-17-chloro-5,13,14,22-tetramethyl-28-oxa-2,9-dithia-5,6,12,13,22-pentaazaheptacyclo[27.7.1.1^4,7.0^11,15.0^16,21.0^20,24.0^30,35]octatriaconta-1(37),4(38),6,11,14,16,18,20,23,29,31,33,35-tridecaene-23-carboxylic Acid]
mice remaining tumor free (MV-4-11 tumor; once weekly iv 30 mg/kg, 16 days after initiation of therapy): 1 of 6
tumor regression (MV-4-11 tumor; once weekly iv 30 mg/kg, at Day 6): ~73%
tumor regression (MV-4-11 tumor; single iv dose of 100 mg/kg): 100%
mice remaining tumor free (MV-4-11 tumor; single iv dose of 100 mg/kg, 16 days after therapy): 4 of the 6
anti-tumor activity (qualitative) (MV-4-11 tumor; mice bearing subcutaneous MV-4-11 tumors, iv): significant anti-tumor activity
anti-tumor activity, agent alone (NCl-H929 tumor): no significant anti-tumor activity
anti-tumor effect of combination (NCl-H929 tumor; Example 2 every other week at 30 mg/kg in combination with weekly bortezomib at 1 mg/kg): tumor regression
anti-tumor activity (qualitative) (MOLP-8 tumor; iv): dose dependent anti-tumor activity
tumor growth inhibition (TGI) (MOLP-8 tumor; single iv administration at 10 mg/kg): 52%
tumor growth inhibition (TGI) (MOLP-8 tumor; single iv administration at 30 mg/kg): 92%
mice with complete tumor regression (MOLP-8 tumor; single iv administration at 60 or 100 mg/kg, measured 10 days after dosing): 13 out of 14
